For the test, the system named is Elastase. Put plainly: Elastase-inhibiting effect of sterol derivatives. In kind it is biochemical. The text has this: The elastase-inhibiting effect of various sterol derivatives was investigated in the concentration range from 2.5 to 1000 ppm.

As for `CC(=O)O[C@H]1CC[C@@]2(C)C(=CC[C@H]3[C@@H]4CC[C@H]([C@H](C)CCCC(C)C)[C@@]4(C)CC[C@@H]32)C1` [Example C1, Cholesterol acetate], the Elastase-inhibiting effect was determined as 0 %-rel (2.5 ppm inhibitor); 0 %-rel (5 ppm inhibitor); 0 %-rel (12.5 ppm inhibitor); 33 %-rel (500 ppm inhibitor); 59 %-rel (1000 ppm inhibitor).
In the case of “Phytosterol sulfate, sodium salt [Example 2]”, the Elastase-inhibiting effect is 31 %-rel (2.5 ppm inhibitor), 64 %-rel (5 ppm inhibitor) and 98 %-rel (12.5 ppm inhibitor).
In the same order, the values of `CC(C)CCC[C@@H](C)[C@H]1CC[C@H]2[C@@H]3CC=C4C[C@@H](OS(=O)(=O)[O-])CC[C@]4(C)[C@H]3CC[C@]12C.[Na+]` [Example 1, Cholesterol sulfate, sodium salt] are 49 %-rel, 92 %-rel and 100 %-rel.
On to Phytosterol phosphate [Example C3], for which the Elastase-inhibiting effect worked out at 0 %-rel (2.5 ppm inhibitor); 0 %-rel (5 ppm inhibitor); 0 %-rel (12.5 ppm inhibitor); 0 %-rel (500 ppm inhibitor); 30 %-rel (1000 ppm inhibitor).
Phytosterol succinate [Example C2]: the Elastase-inhibiting effect is 0 %-rel (2.5 ppm inhibitor); 0 %-rel (5 ppm inhibitor); 0 %-rel (12.5 ppm inhibitor); 0 %-rel (500 ppm inhibitor); 0 %-rel (1000 ppm inhibitor).

Values taken from patent publication US6589945B1, “Use of sterolsulfates as active substances for producing means to inhibit serin proteases” (Cognis Deutschland GmbH & Co. KG, priority 1996, dated 2003).
